Results as given in patent publication US10898504B2, “Substituted nucleoside analogues for use as PRMT5 inhibitors” (Janssen Pharmaceutica NV, priority 2016, dated 2021).
Values joined by “and” are separate entries in the source; they are usually repeats but may differ in a detail not shown here. Equal values may be shown once. One block for each compound: values may come before it.

Legend:
[1] = target: T1, PRMT5-MEP50 enzyme (Homo sapiens, UniProt O14744); test: In vitro assay (Assay 1): PRMT5-MEP50 high throughput mass spectrometer assay, inhibition of SAH formation; format: biochemical; settings: individual measurements shown, read-out: pIC50 Assay 1 (converted)
T1 construct: One virus expresses full length human PRMT5 with Flag-tag at N-terminus
T1 sequence (O14744 whole entry): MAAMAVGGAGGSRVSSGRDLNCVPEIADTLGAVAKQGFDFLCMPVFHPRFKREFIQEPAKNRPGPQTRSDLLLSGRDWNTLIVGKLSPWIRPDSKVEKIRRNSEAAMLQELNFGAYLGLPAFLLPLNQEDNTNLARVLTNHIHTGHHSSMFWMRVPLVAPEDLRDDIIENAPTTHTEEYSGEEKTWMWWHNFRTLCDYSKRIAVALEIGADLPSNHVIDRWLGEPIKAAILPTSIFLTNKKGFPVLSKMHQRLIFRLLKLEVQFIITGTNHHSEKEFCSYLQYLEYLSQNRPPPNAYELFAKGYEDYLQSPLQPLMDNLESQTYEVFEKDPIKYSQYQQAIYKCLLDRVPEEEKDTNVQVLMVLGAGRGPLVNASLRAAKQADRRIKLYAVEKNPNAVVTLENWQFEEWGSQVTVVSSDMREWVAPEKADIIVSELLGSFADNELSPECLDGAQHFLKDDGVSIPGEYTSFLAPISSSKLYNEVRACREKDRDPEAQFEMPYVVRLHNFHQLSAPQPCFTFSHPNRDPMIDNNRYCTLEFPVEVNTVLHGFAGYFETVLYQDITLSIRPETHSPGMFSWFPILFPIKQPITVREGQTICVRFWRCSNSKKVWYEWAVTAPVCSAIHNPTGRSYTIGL
T1 sequence (Q9BQA1 whole entry partner): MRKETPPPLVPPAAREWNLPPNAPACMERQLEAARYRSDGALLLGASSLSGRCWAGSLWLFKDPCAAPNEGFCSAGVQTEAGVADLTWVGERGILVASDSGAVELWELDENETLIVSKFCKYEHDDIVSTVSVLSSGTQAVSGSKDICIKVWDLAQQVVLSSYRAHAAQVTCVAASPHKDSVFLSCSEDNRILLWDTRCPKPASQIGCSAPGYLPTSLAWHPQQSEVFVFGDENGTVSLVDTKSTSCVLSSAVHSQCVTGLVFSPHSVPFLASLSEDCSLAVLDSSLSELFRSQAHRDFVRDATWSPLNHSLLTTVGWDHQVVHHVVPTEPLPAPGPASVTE
Source text: EXPERIMENTAL PROCEDURES IN VITRO ASSAY (ASSAY 1)
PRMT5-MEP50 enzyme was purchased from Charles River (Argenta). The enzyme complex was produced in insect cells (Sf9) infected simultaneously with two baculoviruses. One virus expresses full length human PRMT5 with Flag-tag at N-terminus, the second virus expresses full length MEP50 with His6-TEV cleavage at N-terminus. The protein was affinity purified using anti-Flag (M2) beads eluted with 3×FLAG peptide, followed by His-Select eluted with 0.5M imidazole. Eluted protein was then dialysed against tris-buffered saline (TBS) (pH 8.0) containing 20% glycerol and 3 mM dithiothreitol (DTT).
Full-length untagged human recombinant histone H2A (residues 1-130, Genbank Accession #NM_021052, MW=14.1 kDa) expressed in E. coli was purchased from Reaction Biology Corporation, Cat #HMT-11-146. Reagents used for making reaction buffer or stopping reaction were purchased including Tris base (Sigma Cat #T-1503), NaCl (Sigma Cat #RGF-3270), MgCl2 (Sigma Cat #M0250), DTT (Invitrogen Cat #15508-013) and Formic Acid (Riedel deHaen, Cat #33015)
High Throughput Mass Spectrometer Assay
PRMT5 catalyzes the sequential methylations of the terminal nitrogen atoms on the guanidine groups of arginine residues within proteins using co-substrate S-adenosyl-L-methionine (AdoMet, SAM), forming mono-methyl (MMA), symmetric-dimethyl arginine (sDMA) and S-adenosyl-L-homocysteine (AdoHcy, SAH). The enzyme activity was determined by following the product SAH formation using high throughput mass spectrometry (Agilent Rapidfire 300 System coupled to a Sciex 4000 series QTrapm triple-quad MS/MS). The reaction buffer was 20 mM Tris-HC, pH 8.5, 50 mM NaCl, 5 mM MgCl2 and 1 mM DTT. The reaction activity was stopped using 1% formic acid (final concentration).
The IC50 Studies were performed using eleven point dosing series made for each compound by serially diluted 1:2 in dimethyl sulfoxide (DMSO), with point 12 being a DMSO control. Compounds were first spotted to plates, and followed by addition of 2 μM SAM and 0.6 μM H2A (histone H2A) solution mixture. The same volume of enzyme solution was added to initiate the enzymatic reactions. The final concentrations of the reaction are at 1 μM SAM, 0.3 μM H2A and 10 nM enzyme. The reaction was incubated at 30° C. for 60 minutes (min) and then quenched by addition of formic acid to a final concentration of 1%. The inhibitions of SAH formation in the presence of compounds were calculated as a percentage of the control relative to the uninhibited reaction as a function of inhibitor concentration. The data were fit as follows: Y=Bottom+(Top−Bottom)/(1+10^((log IC50−X)*h))
where IC50 is the inhibitor concentration (same unit as X) at 50% inhibition and h is the Hill slope. Y is percent of inhibition, X is log of compound concentration. Bottom and Top are the plateaus in same units as Y.

[2] = system: A549 cells; test: PD assay (Assay 2): inhibition of nuclear symmetric Arginine dimethylation (SYM10 immunohistochemistry) in A549 cells; format: cell-based; settings: individual measurements shown; for IC50: Homo sapiens, A549, PD assay in A549 cells, read-out: pIC50 Assay 2 (converted); for pIC50 Assay 2: PD assay in A549 cells
Description: EXPERIMENTAL PROCEDURE PD ASSAY (ASSAY 2)
A549 cells (ATCC, Cat #CCL-185) were cultured in Dulbecco's Modified Eagle's Medium (DMEM) (Sigma, Cat #D5796), supplemented with 10% Fetal Calf Serum (FCS)(HyClone™, Cat #SV30160.03), 100 mM Sodium Pyruvate (Sigma, Cat #S8636), 200 mM L-Glutamine (Sigma, Cat #G7513) and 50 mg/mL Gentamycing (Gibco, Cat #15750-037).
Reagents used for buffers were purchased: Dulbecco's phosphate buffered saline (DPBS) without Ca/Mg (Sigma, Cat #D8537), phosphate buffered saline (PBS) 10× (Roche, Cat #11 666 789 001), Formalin solution 10% (Sigma, HT50-1-128-4L), MeOH 100% (Sigma, Cat #32213-2.5L), Triton X-100 (Acros, Cat #215680010), Bovine Serum Albumin (BSA) (Sigma, Cat #A2153), Alexa fluor 488 goat anti-rabbit antibody (Life Technologies, Cat #A11034), HCS CellMask Deep Red Stain (Life Technologies, Cat #H32721), Hoechst Stain (Life Technologies, Cat #33258), Anti-dimethyl-Arginine, sym (SYM10) antibody (Millipore, 07-412).
Immunohistochemistry Procedure
Cells were plated at 400 cells/40 μL/well in 384 well black plates μclear bottom (Perkin Elmer) and overnight incubated at 37° C., 5% CO2. The IC50 Studies were performed using nine point dosing series ranging from 10 μM to […] for each compound. 80 nL of the respective dilution of the compounds was added using the Labcyte POD 810 (Labcyte) reaching a final DMSO concentration of 0.2% in cell culture. After an incubation period of 48 h at 37° C. and 5% CO2, cells were fixed in 10% formalin solution for 15 min at r.t. and 20 min in ice-cold MeOH, after which they were washed 3× in DPBS. Subsequently, the cells were blocked for 1 h in blocking buffer (PBS+1% BSA and 0.5% Triton X-100) and incubated overnight at 4° C. with the SYM10 antibody diluted 1/2000 in blocking buffer. The cells were washed 3× with washing buffer (PBS+0.1% Triton X-100) and incubated with the Alexa fluor 488 goat anti-rabbit antibody diluted 1/200 in blocking buffer for 1 h at r.t. Subsequently, they were washed 3× with washing buffer and incubated for 30 min at r.t. with PBS containing a 1/5000 dilution of Hoechst Stain and a 1/5000 dilution of the HCS CellMask Deep Red Stain. After a final wash with PBS, the plates were imaged using the 10×W lens of the Opera® system (Perkin Elmer Life Sciences) using following settings (values in nm):
In the above equations, the following variable names are use: […]
In the above equations, the following controls were used for normalization: […]
Low control: minimum level of symmetrically dimethylated Arginines (cells treated with reference compound at 10 μM).
High control: maximum level of symmetrically dimethylated Arginines (DMSO treated cells).
IC50 and pIC50 (−log IC50) values were calculated using the appropriate software.
pIC50 values (Co. No. means compound number; n.d. means not determined).

IC50 [1]: 0.24 µM
IC50 [2]: 12 µM
Structure (SMILES): Nc1ncnc2c1ccn2[C@@H]1O[C@H](CN2CCCC3(CNCCO3)C2)[C@@H](O)[C@H]1O (single isomer, unassigned) [Compound 33]

IC50 [1]: 3.98 µM
pIC50 Assay 2 [2]: <4.7
Structure (SMILES): Nc1ncnc2c1ccn2[C@@H]1O[C@H](CN2CCCC3(CNCCO3)C2)[C@@H](O)[C@H]1O (single isomer, unassigned) [Compound 34]

IC50 [1]: 0.105 µM
IC50 [2]: ~6.17 µM
Structure (SMILES): Nc1ncnc2c1ccn2[C@@H]1O[C@H](CN2CCCC3(CCCCN3)C2)[C@@H](O)[C@H]1O (single isomer, unassigned) [Compound 35]

IC50 [1]: 1.91 µM
pIC50 Assay 2 [2]: ~5.13
Structure (SMILES): Nc1ncnc2c1ccn2[C@@H]1O[C@H](CN2CCCC3(CCCCN3)C2)[C@@H](O)[C@H]1O (single isomer, unassigned) [Compound 36]

IC50 [1]: 0.0676 µM
IC50 [2]: 11.2 µM
Structure (SMILES): Nc1ncnc2c1ccn2[C@@H]1O[C@H](CN2CCCC3(CCCN3)C2)[C@@H](O)[C@H]1O (single isomer, unassigned) [Compound 39]

IC50 [1]: 0.0234 µM
IC50 [2]: ~1.66 µM
Structure (SMILES): Nc1ncnc2c1ccn2[C@@H]1O[C@H](CN2C(C(F)(F)F)CCC23CCNCC3)[C@@H](O)[C@H]1O (single isomer, unassigned) [Compound 115]

IC50 [1]: 0.151 µM
pIC50 Assay 2 [2]: 5.53
Structure (SMILES): Nc1ncnc2c1ccn2[C@@H]1O[C@H](CN2C(C(F)(F)F)CCC23CCNCC3)[C@@H](O)[C@H]1O (single isomer, unassigned) [Compound 116]

IC50 [1]: 0.0339 µM
IC50 [2]: 0.501 µM
Structure (SMILES): Nc1ncnc2c1ccn2[C@@H]1O[C@H](CN2CCCC23CCCNCC3)[C@@H](O)[C@H]1O (single isomer, unassigned) [Compound 117]

IC50 [1]: 0.0355 µM
pIC50 Assay 2 [2]: 6.29
Structure (SMILES): Nc1ncnc2c1ccn2[C@@H]1O[C@H](CN2CCCC23CCCNCC3)[C@@H](O)[C@H]1O (single isomer, unassigned) [Compound 118]

IC50 [1]: 0.155 µM
pIC50 Assay 2 [2]: ~5.97
Structure (SMILES): Nc1ncnc2c1ccn2[C@@H]1O[C@H](CN2CCCC23CCCNC3)[C@@H](O)[C@H]1O (single isomer, unassigned) [Compound 119]

IC50 [1]: 2.29 µM
pIC50 Assay 2 [2]: <5
Structure (SMILES): Nc1ncnc2c1ccn2[C@@H]1O[C@H](CN2CCCC23CCCNC3)[C@@H](O)[C@H]1O (single isomer, unassigned) [Compound 120]

IC50 [1]: > 10 µM
Structure (SMILES): Nc1ncnc2c1ccn2[C@@H]1O[C@H](CN2CCCC2(CN2CCCC2)C(F)(F)F)[C@@H](O)[C@H]1O (stereo partly shown) [Compound 189]

The next lines start with the compound.

Structure (SMILES): Nc1ncnc2c1ccn2[C@@H]1O[C@H](CN2CCOCC23CCNC3)[C@@H](O)[C@H]1O (single isomer, unassigned) [Compound 110]
IC50 [1]: 1.23 µM
IC50 [2]: > 10 µM

Structure (SMILES): Nc1ncnc2c1ccn2[C@@H]1O[C@H](CN2CCOCC23CCNC3)[C@@H](O)[C@H]1O (single isomer, unassigned) [Compound 111]
IC50 [1]: 0.174 µM
pIC50 Assay 2 [2]: ~5.26

Structure (SMILES): CN1CCC2(CCCN2C[C@H]2O[C@@H](n3cnc4c(N)ncnc43)[C@H](O)[C@@H]2O)CC1 [Compound 1]
IC50 [1]: 0.219 µM
IC50 [2]: 7.24 µM

Structure (SMILES): CN1CC2(CCCN2C[C@H]2O[C@@H](n3cnc4c(N)ncnc43)[C@H](O)[C@@H]2O)C1 [Compound 2]
IC50 [1]: 0.776 µM
IC50 [2]: > 10 µM

Structure (SMILES): CN1CCC2(CCN2C[C@H]2O[C@@H](n3cnc4c(N)ncnc43)[C@H](O)[C@@H]2O)C1 (stereo partly shown) [Compound 3]
IC50 [1]: 1.66 µM
IC50 [2]: > 10 µM

Structure (SMILES): CN1CCC12CCN(C[C@H]1O[C@@H](n3cnc4c(N)ncnc43)[C@H](O)[C@@H]1O)C2 (stereo partly shown) [Compound 4]
IC50 [1]: 2.29 µM
IC50 [2]: > 10 µM

Structure (SMILES): CN1CC2(CCN(C[C@H]3O[C@@H](n4cnc5c(N)ncnc54)[C@H](O)[C@@H]3O)C2)C1 [Compound 5]
IC50 [1]: 8.13 µM
IC50 [2]: > 10 µM

Structure (SMILES): CN1CCC2(C1)CN(C[C@H]1O[C@@H](n3cnc4c(N)ncnc43)[C@H](O)[C@@H]1O)C2 [Compound 6]
IC50 [1]: > 100 µM

Structure (SMILES): CN1CCCC12CN(C[C@H]1O[C@@H](n3cnc4c(N)ncnc43)[C@H](O)[C@@H]1O)C2 [Compound 7]
IC50 [1]: 66.1 µM
IC50 [2]: > 10 µM

Structure (SMILES): CN1CC2(CCCN(C[C@H]3O[C@@H](n4cnc5c(N)ncnc54)[C@H](O)[C@@H]3O)C2)C1 [Compound 8]
IC50 [1]: 0.155 µM
IC50 [2]: 1.51 µM

Structure (SMILES): CN1CCC2(CC1)CCN2C[C@H]1O[C@@H](n2cnc3c(N)ncnc32)[C@H](O)[C@@H]1O [Compound 9]
IC50 [1]: 0.776 µM
IC50 [2]: > 10 µM

Structure (SMILES): CN1CCCCC12CN(C[C@H]1O[C@@H](n3cnc4c(N)ncnc43)[C@H](O)[C@@H]1O)C2 [Compound 10]
IC50 [1]: 38.9 µM and 24.5 µM
IC50 [2]: > 10 µM

Structure (SMILES): CN1CC2(CCCCN2C[C@H]2O[C@@H](n3cnc4c(N)ncnc43)[C@H](O)[C@@H]2O)C1 [Compound 11]
IC50 [1]: 12.3 µM
IC50 [2]: > 10 µM

Structure (SMILES): CN1CCCC2(C1)CN(C[C@H]1O[C@@H](n3cnc4c(N)ncnc43)[C@H](O)[C@@H]1O)C2 [Compound 12]
IC50 [1]: 67.6 µM
IC50 [2]: > 10 µM

Structure (SMILES): CN1CCC2(CCCN2C[C@H]2O[C@@H](n3cnc4c(N)ncnc43)[C@H](O)[C@@H]2O)C1 (stereo partly shown) [Compound 13]
IC50 [1]: 0.955 µM
IC50 [2]: > 10 µM

Structure (SMILES): CN1CCC2(CCN(C[C@H]3O[C@@H](n4cnc5c(N)ncnc54)[C@H](O)[C@@H]3O)C2)C1 (stereo partly shown) [Compound 14]
IC50 [1]: 0.977 µM
IC50 [2]: > 10 µM

Structure (SMILES): CN1CCCC12CCN(C[C@H]1O[C@@H](n3cnc4c(N)ncnc43)[C@H](O)[C@@H]1O)C2 (stereo partly shown) [Compound 15]
IC50 [1]: 29.5 µM
IC50 [2]: > 10 µM

Structure (SMILES): CN1CCC12CN(C[C@H]1O[C@@H](n3cnc4c(N)ncnc43)[C@H](O)[C@@H]1O)C2 [Compound 17]
IC50 [1]: > 100 µM

Structure (SMILES): CC(C)C(=O)O[C@@H]1[C@H](OC(=O)C(C)C)[C@@H](CN2CC(F)(F)CC23CCN(C)CC3)O[C@H]1n1ccc2c(N)ncnc21 [Compound 101]
pIC50 Assay 2 [2]: 7.06 and 7.08
